# Reference: patent publication US9545387B2, “Composition and kit comprising piperazine derivatives and metformin, and use thereof in the treatment of diabetes” (METABOLYS, priority 2012, dated 2017)
# Key:
# [1] = oral glucose tolerance test (OGTT) in normal Swiss mice fasting for 17 hours, additive effect with metformin; format: in vivo; conditions: compound 1 50 mg/kg per os, metformin 300 mg/kg per os
# Description: The anti-diabetic action of the compounds in Examples 1 and 2 were determined via oral route in normal Swiss mice fasting for 17 hours. […] The animals were housed for a minimum time of one week after delivery (ordered from Charles River France) up until the day of experimentation in an animal facility at a temperature regulated at 21-22° C. and subjected to a light cycle (from 9 h to 17 h) and dark cycle (from 19 h to 7 h). They were fed a maintenance diet: water and food were provided ? ad libitum ? . The animals were treated via oral route 1 hour before oral administration of a glucose load (oral glucose tolerance test—OGTT). Glycaemia was measured at various times before and after this glucose load. This glycaemia was measured using a glucometer (Lifescan OneTouch Ultra, Lifescan, Johnson and Johnson Company) and OneTouch Ultra glycaemia test strips. In the Tables below n represents the number of mice included in the study. • 1. […] The 2 compounds were administered successively one hour before the glucose load. All the groups were composed of 5 mice (metformin alone, compound 1 alone, metformin+compound 1, control group with the carrier alone). Blood samples were taken at 0, 30, 60, 90 and 120 minutes after the glucose load.
# [2] = as above; format: in vivo; conditions: metformin 300 mg/kg per os; for Glycaemia, Time −60 mn / Glycaemia, Time 30 mn / Glycaemia, Time 60 mn / Glycaemia, Time 120 mn / Glycaemia, Time 0 mn / Glycaemia, Time 90 mn: OGTT; for Glycaemia, Time −60 mn: given 1 h before glucose load, time −60 min; for Glycaemia, Time 30 mn: time 30 min; for Glycaemia, Time 60 mn: time 60 min; for Glycaemia, Time 120 mn: time 120 min; for Glycaemia, Time 0 mn: time 0 min; for Glycaemia, Time 90 mn: time 90 min
# [3] = test system: liver cells of rats fasting for 48 h; conditions: rat liver cells; stated in words, no data shown; cited from earlier work
# [4] = Table 1, compound 1 50 mg/kg per os
# [5] = Table 2, compound 2 50 mg/kg per os
# [6] = Table 3, compound 3 50 mg/kg per os
# [7] = Table 4, compound 4 50 mg/kg per os
smiles,measurement,setting,value
"CN(C)C(=N)N=C(N)N [Metformin, metformin]","Glycaemia, Time 0 mn","[1]; Table 1, OGTT, time 0 min",3.2 ± 0.3 mM/liter
same,"Glycaemia, Time 90 mn","[1]; Table 1, OGTT, time 90 min",7.7 ± 1.0 mM/liter
same,drop of glycaemia area under curve after glucose load,[1]; study 1,44.2%
same,"Glycaemia, Time −60 mn",[2]; [4],3.7 ± 0.3 mM/liter
same,"Glycaemia, Time 30 mn",[2]; [4],8.6 ± 0.5 mM/liter
same,"Glycaemia, Time 60 mn",[2]; [4],9.4 ± 0.8 mM/liter
same,"Glycaemia, Time 120 mn",[2]; [4],6.2 ± 0.8 mM/liter
same,"Glycaemia, Time −60 mn",[2]; [5],3.8 ± 0.1 mM/liter
same,"Glycaemia, Time 0 mn",[2]; [5],3.6 ± 0.3 mM/liter
same,"Glycaemia, Time 30 mn",[2]; [5],11.2 ± 0.3 mM/liter
same,"Glycaemia, Time 60 mn",[2]; [5],9.5 ± 0.4 mM/liter
same,"Glycaemia, Time 90 mn",[2]; [5],8.0 ± 1.3 mM/liter
same,"Glycaemia, Time 120 mn",[2]; [5],8.2 ± 0.7 mM/liter
same,"Glycaemia, Time −60 mn",[2]; [6],5.6 ± 0.3 mM/liter
same,"Glycaemia, Time 0 mn",[2]; [6],6.0 ± 0.3 mM/liter
same,"Glycaemia, Time 30 mn",[2]; [6],9.2 ± 0.8 mM/liter
same,"Glycaemia, Time 60 mn",[2]; [6],8.2 ± 0.4 mM/liter
same,"Glycaemia, Time 90 mn",[2]; [6],7.7 ± 0.2 mM/liter
same,"Glycaemia, Time 120 mn",[2]; [6],9.6 ± 0.8 mM/liter
same,"Glycaemia, Time −60 mn",[2]; [7],4.2 ± 0.3 mM/liter
same,"Glycaemia, Time 0 mn",[2]; [7],3.6 ± 0.3 mM/liter
same,"Glycaemia, Time 30 mn",[2]; [7],9.5 ± 0.6 mM/liter
same,"Glycaemia, Time 60 mn",[2]; [7],11.2 ± 1.8 mM/liter
same,"Glycaemia, Time 90 mn",[2]; [7],9.6 ± 0.9 mM/liter
same,"Glycaemia, Time 120 mn",[2]; [7],8.6 ± 0.7 mM/liter
same,drop of glycaemia area under curve after glucose load,"[2]; study 2, compound 2 50 mg/kg per os",38.7%
same,drop of glycaemia area under curve after glucose load,"[2]; study 3, compound 3 50 mg/kg per os",68.5%
same,drop of glycaemia area under curve after glucose load,"[2]; study 4, compound 4 50 mg/kg per os",54.3%
same,effect on the production of 13CO2 from 2-13C-lactate,[3],reduces
same,effect on the synthesis of glucose,[3],reduces
